Results on seven compounds are retold here after patent US10898708B2, “System and method for applying pulsed electromagnetic fields” (National University of Singapore, priority 2015, dated 2021).

“Also recorded” adds a separate entry of the source.

The test system of assay [1] is C2C12 myoblasts. Briefly: Intracellular calcium in C2C12 myoblasts (Calcium Green-1; flow cytometry or plate reading). The assay is classed as cell-based, mouse. How it is done: In preparation for measurement of changes in intracellular calcium in response to PEMF treatment with flow cytometry myoblasts (50,000 cells) were spun down (1000 RCF; 5 minutes), resuspended in 2 ml of PBS and next loaded with 20 μl Calcium Green-1, AM (50 μg in 100 μl DMSO; Molecular Probes) for 30 minutes at 37 C in the dark. Following incubation, cells were washed once, resuspended into 500 μl PBS and placed on ice before registry in a BD FACSAria Flow Cytometer (FL1 channel). For plate reading assessment of intracellular calcium, myoblasts were plated into 96 black well plates (Brand 96 Flat Bottom Black) at 10,000 cells/wells. Cultures were washed once with PBS and supplied with 250 μl growth media to which Calcium Green-1 AM (50 μg in 100 μl DMSO; Molecular Probes) had been added at a dilution of 1:1000. Myoblasts cultures were then incubated in a standard tissue culture incubator for 5 minutes, followed by PEMF exposure for 10 minutes and then replaced in the incubator for an additional 15 minutes at 37° C. before washing with 37° C. PBS. Calcium measurement was conducted using a Tecan Infinite 200Pro plate reader with excitation wavelength and emission wavelengths set to 500 nm and 535 nm, respectively, and bandwidth excitation and emission wavelengths set to 9 and 20 nm, respectively.
(§1) Each pulse train consists of 20×150 μsec asymmetric pulses separated by 150 μsec interpulse intervals to the 0 flux level. The magnetic flux density rose to maximal level within 20-50 μsec and dropped equally as rapidly (50 T/s).
A general note: Calcium flux is commonly read through the fluorescence of an indicator in the cells.

Assay [2] deals with C2C12 myoblasts. Put plainly: PEMF-induced proliferation of C2C12 myoblasts. The conditions noted are these: 100 μM; 1 mT PEMFs within 18 hours after plating.
Assay [3] deals with C2C12 myoblasts. Briefly: Cell cycle (G2/M accumulation) of myoblasts in simulated microgravity. The assay is classed as cell-based, mouse. The settings on record: 5 mM added transiently 10 minutes before simulated microgravity; at 2 hours. As for the experimental part: The RPM was kept in a temperature-controlled room at 37° C. The calculated gravity exerted upon cells on the RPM was below 0.02 g. Cells were seeded 15 hours prior to the start of the RPM experiment at 8000/cm^2. At 15 hours some samples were incubated with 5 mM CaCl2 for 10 min, washed twice with PBS, given aged matched GM and placed onto the RPM. Other samples were exposed to PEMF at 37° C. (0.5 or 1.5 mT) for 10 min before being placed onto the RPM. Samples were fixed after 2 hours for subsequent cell cycle analysis as described below.
Following RPM treatment (above) cells were fixed and stored at −20° C. in 70% ice-cold ethanol for 12 to 18 hours prior to staining. Cell cycle was analyzed based on DNA content using a propidium iodide (PI)/RNase staining kit (BD Biosciences, cat#550825) by FACS.

For assay [4], the target named is T1, TRPC1 channel (Homo sapiens, UniProt P48995).
T1 construct: PEMF-induced TRPC1-mediated calcium entry in myoblasts increases oxygen consumption rate (OCR); endogenous in cells
T1 sequence (P48995 whole entry): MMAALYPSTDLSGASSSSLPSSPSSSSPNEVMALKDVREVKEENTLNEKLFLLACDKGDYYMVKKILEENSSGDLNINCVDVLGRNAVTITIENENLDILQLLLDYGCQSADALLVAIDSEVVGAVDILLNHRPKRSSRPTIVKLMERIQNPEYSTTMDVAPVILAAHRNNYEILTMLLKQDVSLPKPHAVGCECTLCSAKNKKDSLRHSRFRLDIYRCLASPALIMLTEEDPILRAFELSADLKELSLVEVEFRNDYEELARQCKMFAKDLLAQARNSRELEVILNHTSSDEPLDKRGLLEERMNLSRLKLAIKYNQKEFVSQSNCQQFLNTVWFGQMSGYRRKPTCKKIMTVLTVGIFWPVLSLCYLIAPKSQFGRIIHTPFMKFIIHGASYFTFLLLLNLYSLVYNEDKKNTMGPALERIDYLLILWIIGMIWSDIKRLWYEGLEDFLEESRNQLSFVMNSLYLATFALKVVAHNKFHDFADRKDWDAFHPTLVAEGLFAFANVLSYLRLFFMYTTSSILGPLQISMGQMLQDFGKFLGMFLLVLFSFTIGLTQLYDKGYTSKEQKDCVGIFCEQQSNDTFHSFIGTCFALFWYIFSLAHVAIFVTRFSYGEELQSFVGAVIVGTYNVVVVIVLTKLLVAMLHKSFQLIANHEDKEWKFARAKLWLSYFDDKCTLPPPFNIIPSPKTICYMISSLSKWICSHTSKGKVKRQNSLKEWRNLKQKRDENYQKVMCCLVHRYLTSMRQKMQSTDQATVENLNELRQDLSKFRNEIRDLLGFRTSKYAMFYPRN
Put plainly: Oxygen consumption rate (OCR) of myoblasts in response to PEMF. The assay is classed as cell-based. The conditions noted are these: oxygen consumption measured 6 hours after PEMF. How it is done: Muscle gene expression enhanced by PEMF treatment as indicated. […] The principal functions of these genes are shown in the parentheses. […] A) Human myoblast measurement showing increased OCR six hours following exposure to 1.5 mT PEMFs for 10 minutes. B) The production of reactive oxygen species (ROS) also increases 15 minutes after PEMF (1.5 mT) exposure.
C) Oxygen consumption rate (OCR) in response to PEMF stimulation obeys the same EMF efficacy window as proliferation. […] Cells were exposed to PEMFs and oxygen consumption measured 6 hours later. These cellular responses obey a mitohormeitic EMF efficacy window particular for skeletal muscle.

For assay [5], the system named is C2C12 myoblasts. Put plainly: Myogenic differentiation (myotube area) of C2C12 myoblasts after PEMF. Format: cell-based, mouse. The conditions noted are these: 100 μM co-administered; 1 mT PEMFs, early application. How it is done:
Series of 4 images with 20× magnification were taken for each sample and myotube area was calculated by manually delimiting the myotube periphery using ImageJ (Cell Counter plugin).
as §1

The mark [6] stands for this setting: extracellular magnesium raised to 10 mM, plate reading.

For the compound `NCCOB(c1ccccc1)c1ccccc1` [2-APB, 2-Aminoethyl diphenylborinate], the “[Ca^2+]i / cytosolic calcium level” value in assay [1] (10 μM, unstimulated (0 mT) and stimulated (1 mT) myoblasts) was “reduced the cytosolic calcium levels to a common baseline; also recorded: reduced [Ca^2+]i to a common baseline”. For the same compound, the PEMF-provoked calcium increments result in assay [1] (antagonizing TRPM7/C1 channels, 1 mT PEMFs) was “precluded the ability of PEMFs to provoke calcium increments”. For the same compound, the PEMF-induced proliferation entry in assay [2] is “abolished the ability of PEMFs to enhance proliferation”.

Consider `[Ca+2].[Cl-].[Cl-]` [CaCl2], for which, in assay [3], the “Reversal of G2/M accumulation from simulated microgravity” value was “mimic the effects of 1.5 mT PEMFs”.

Take `COc1ccc(CCCOC(Cn2ccnc2)c2ccc(OC)cc2)cc1` (centres unmarked) [SKF-96365]: the “OCR in response to PEMF exposure” value in assay [4] is “blocks OCR in response to PEMF exposure”.

With `COc1cc(CNC(=O)CCCC/C=C/C(C)C)ccc1O` [capsaicin], the “capsaicin calcium response versus response to PEMFs” value in assay [1] (1 mT PEMFs) is “inversely related to response to 1 mT PEMFs”.

Turning to `C[C@H](CCC(=O)O)C[C@H](C)C[C@H](C)C(=O)/C=C(\O)[C@H](C)C[C@H](C)C/C=C/[C@@H](C)[C@@H](O)[C@@H](C)[C@@H](O)C[C@@H]1CC[C@@](C)([C@H]2CC[C@@](C)([C@@H](C)O)O2)O1` [ionomycin], the “[Ca^2+]i increase relative to unexposed cells” value in assay [1] (1 μM, 30 min, compared with 1 mT PEMFs for 10 min, listed as lonomycin) was “comparable magnitude”. The “[Ca^2+]i” value in assay [1] (1 μM, five-hour application) was “produced lethal [Ca^2+]i”.

Consider `[Mg+2]` [magnesium], for which, in assay [1] (setting [6]), the “PEMF-induced rise of intracellular calcium” value is reported as “did not prevent PEMFs from raising intracellular calcium; also recorded: does not prevent PEMFs from raising intracellular calcium”; the “basal and PEMF-induced calcium levels” value is “augmented both basal and PEMF-induced calcium levels”.

neomycin: the “PEMF enhancement of myotube size (mean myotube area)” value in assay [5] was “prevented”.
